Patent US11147884B2, “Inhibitors of NHE-mediated antiport” (Ardelyx, Inc., priority 2017, dated 2021)

Key:
[1] = system: human ileum monolayer culture; assay: Transepithelial electrical resistance (TEER) in human ileum organoid monolayer cultures; type: cell-based; conditions: for TEER compared with control: 3 μM, vs DMSO (FIG. 1D)
Description: Each human ileum monolayer culture well was washed twice with fresh SBM on the apical side on day 6 before compound dosing. All compound stocks were 10 mM dissolved in DMSO. Each compound stock was individually mixed with fresh SBM to reach final compound concentration and dosed only on the apical side of the monolayer (total volume 200 μl). DMSO at the equivalent concentration was used as the vehicle control. Duplicate wells were dosed for each compound. Transepithelial electrical resistance (TEER) was used as a quantitative technique to measure of tight junction permeability. TEER values were recorded using a volt/ohm meter (MERS00002, Millipore) before and after dosing for all wells. Each of the duplicate TEER values following treatment were corrected for the individual well baseline TEER. Baseline corrected TEER for each example compound was compared to the average of the DMSO wells and expressed as a percent TEER of vehicle control. Intracellular pH was measured in human ileum stem cells grown as monolayers on 96 well Transwell plates cells incubated with 10 μM of pH sensitive dye BCECF-AM (Life Technologies, cat# B1150) for 30 min at 37° C., 5% CO2 in Na-containing buffer (120 mM NaCl, 10 mM HEPES, 10 mM glucose, 5 mM KCl, 2 mM CaCl2, 1 mM MgCl2, pH 7.4). After 30 min the dye was aspirated and cells were washed twice with Na-containing buffer.
Fluorescent readings were acquired every 5 minutes for a period of 30 minutes on a Flexstation microplate reader at dual excitation wavelengths of 495 nm and 439 nm and emission wavelength of 538 nm (Molecular Devices). The fluorescent ratio for pH indication was calculated from ratio of the two excitation wavelengths (495/439 nm).

[2] = system: human ileum stem cells grown as monolayers; assay: Intracellular pH (BCECF-AM) in human ileum monolayers; type: cell-based; conditions: human ileum monolayer
[3] = target: T1, NHE3 (Homo sapiens, UniProt P48764); assay: NHE3 activity in enterocytes by intracellular pH recovery following acid loading; type: cell-based
T1 construct: the increase in NHE3 expression after differentiation; endogenous in cells; host or cells: enterocytes (differentiated human ileum organoid monolayer cultures)
T1 sequence (P48764 26-834): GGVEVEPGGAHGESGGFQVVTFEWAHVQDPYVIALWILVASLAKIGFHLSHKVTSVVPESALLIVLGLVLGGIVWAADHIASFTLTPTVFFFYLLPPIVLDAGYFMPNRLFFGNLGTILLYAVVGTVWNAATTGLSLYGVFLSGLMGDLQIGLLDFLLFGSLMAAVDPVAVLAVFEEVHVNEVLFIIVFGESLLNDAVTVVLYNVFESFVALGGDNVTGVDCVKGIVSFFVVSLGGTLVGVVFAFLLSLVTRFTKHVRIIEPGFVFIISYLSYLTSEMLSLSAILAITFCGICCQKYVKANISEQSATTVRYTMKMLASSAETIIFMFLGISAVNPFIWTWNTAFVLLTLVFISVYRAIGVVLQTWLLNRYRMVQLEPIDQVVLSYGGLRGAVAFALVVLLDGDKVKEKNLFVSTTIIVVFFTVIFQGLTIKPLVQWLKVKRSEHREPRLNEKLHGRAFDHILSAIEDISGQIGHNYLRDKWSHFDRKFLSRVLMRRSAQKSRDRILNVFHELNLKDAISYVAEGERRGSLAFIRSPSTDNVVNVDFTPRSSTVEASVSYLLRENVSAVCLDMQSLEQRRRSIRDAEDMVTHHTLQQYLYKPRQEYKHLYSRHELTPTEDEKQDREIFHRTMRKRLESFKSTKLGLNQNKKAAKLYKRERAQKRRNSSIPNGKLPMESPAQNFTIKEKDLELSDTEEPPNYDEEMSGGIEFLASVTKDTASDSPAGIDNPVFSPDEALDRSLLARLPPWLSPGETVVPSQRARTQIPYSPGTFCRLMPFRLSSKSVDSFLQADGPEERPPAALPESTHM
Description: Known NHE3 inhibitor Tenapanor, as well as non NHE3 inhibitors nigericin, BAM15, FCCP, or DMSO control, were diluted into Na-containing buffer and added to the apical compartment of the Transwell. Fluorescent readings were acquired every 5 minutes for a period of 30 minutes on a Flexstation microplate reader at dual excitation wavelengths of 495 nm and 439 nm and emission wavelength of 538 nm (Molecular Devices). The fluorescent ratio for pH indication was calculated from ratio of the two excitation wavelengths (495/439 nm).

[4] = system: mice; assay: Gastrointestinal transit (Evans Blue dye front) in opioid induced constipation model; type: in vivo; conditions: oral vehicle, subcutaneous loperamide (0.3 to 6 mg/kg); 30-minute period; vehicle/vehicle approximately 70%
Description: Gastrointestinal transit is measured in mice treated with the peripherally acting μ-opioid agonist loperamide to assess the ability of selected example compounds to restore gastrointestinal motility in a model of opioid induced constipation. Approximately eight-week old, female, CD 1 rats are purchased from Envigo (Livermore, Calif.), are housed 4 per cage and acclimated for at least 48 hours before study initiation. Animals are fed standard laboratory rodent chow Harlan Teklad Global 2018 (Maddison, Wis.). […] 30 minutes later, animals are euthanized by carbon dioxide inhalation, and the length from the pylorus to cecum (whole length of the small intestine) and the length from the pylorus to the Evans Blue dye front are measured and recorded. For an individual animal, the length travelled by the Evans Blue dye front is divided by the length of the whole small intestine, measured from the pylorus to the cecum, and multiplied by 100, to provide the distance of the small intestine travelled by the dye as a percentage. […] The effect of example compounds on GIT motility in the presence of loperamide is calculated as the ability to restore vehicle/vehicle transit distance from the vehicle/loperamide transit, expressed as a percentage.

| Compound | inhibition of NHE3 activity in enterocytes [3] | TEER compared with control [1] | intracellular pH compared with control ([2]; 3 μM, vs DMSO (FIG. 1C)) | also measured |
| --- | --- | --- | --- | --- |
| CN1Cc2c(Cl)cc(Cl)cc2[C@H](c2cccc(S(=O)(=O)NCCOCCOCCNC(=O)NCCCCNC(=O)NCCOCCOCCNS(=O)(=O)c3cccc([C@@H]4CN(C)Cc5c(Cl)cc(Cl)cc54)c3)c2)C1 [tenapanor] | – | – | – | TEER relative to control ([1]; apical dosing, vs DMSO (FIG. 1B)): increase in TEER relative to control |
| CO[C@@H]1C[C@@H](C[C@H]2CC[C@H](C)[C@H]([C@@H](C)C(=O)O)O2)O[C@]2(O[C@](C)([C@H]3CC[C@@](C)([C@@H]4O[C@@H]([C@H]5O[C@@](O)(CO)[C@H](C)C[C@@H]5C)C[C@@H]4C)O3)C[C@H]2C)[C@@H]1C [nigericin] | neither nigericin, BAM15 nor FCCP inhibited NHE3 activity | – | – | intracellular pH compared with control ([2]; apical dosing, vs DMSO (FIG. 1A)): reduced intracellular pH compared with control |
| CN(C)C(=O)C(CCN1CCC(O)(c2ccc(Cl)cc2)CC1)(c1ccccc1)c1ccccc1 [loperamide] | – | – | – | length of the small intestine travelled by Evans Blue dye front [4]: ~25% |
| FCCP | – | increased TEER compared with control | decrease intracellular pH | – |
| Fc1ccccc1Nc1nc2nonc2nc1Nc1ccccc1F [BAM15] | neither nigericin, BAM15 nor FCCP inhibited NHE3 activity | increased TEER compared with control | decrease intracellular pH | – |
